Results from PMC3222680 (PLoS ONE, 2011).

Tests used:
Format in all cases: cell-based
αK24′A α-βWT GlyR = biological target: T1, αK24′A α-βWT GlyR (Homo sapiens, UniProt P23415+P48167, K304A)
T1 construct: The α R218-Q219 and β R242-Q243 are also the joining sites for chimeras constructed between the ECD and TMD; expressed in transfected cells; host or cells: HEK293 (ATCC)
Method: (§1) The human GlyR α1 and β subunit cDNAs were subcloned into the pcDNA3.1zeo+ (Invitrogen) or pGEMHE [44] plasmid vectors for expression in HEK293 cells or Xenopus oocytes, respectively. Site-directed mutagenesis and chimera construction were performed using the QuickChange (Stratagene, La Jolla, CA, USA) mutagenesis and multiple-template-based sequential PCR protocols, respectively.
(§2) The effects of the hyperekplexia-mimicking mutations, K24′A, V25′A and Y27′A, were examined on GlyRs expressed in HEK293 cells (ATCC). Details of the HEK293 cell culture, GlyR expression and electrophysiological recording of the HEK293 cells are described elsewhere. Briefly, HEK293 cells were maintained in DMEM supplemented with 10% fetal bovine serum. Cells were transfected using a calcium phosphate precipitation protocol. When co-transfecting the α1 together with the β or any other chimera subunits, their respective cDNAs were combined in a ratio of 1∶10. In addition, the pEGFP-N1 (Clontech) was co-transfected to facilitate identifying the transfected cells. […] Cells were treated with external Ringer's solution and internal CsCl solution [30]. Cells were voltage-clamped at −40 mV. When the heteromeric GlyRs were expressed, the picrotoxin sensitivity was tested to confirm that the majority of receptors are heteromers, [30].
(§3) Results are expressed as mean±standard error of the mean of three or more independent experiments. […] Statistical significance was determined using the Student's t-test.

αR19′A βA19′R GlyR = biological target: T2, αR19′A βA19′R GlyR (Homo sapiens, UniProt P23415+P48167, A317R/R299A)
T2 construct: expressed in transfected cells; host or cells: HEK293 (ATCC)
Method: as §1, §2, §3

αR19′A βWT GlyR = biological target: T3, αR19′A βWT GlyR (Homo sapiens, UniProt P23415+P48167, R299A)
T3 construct: expressed in transfected cells; host or cells: HEK293 (ATCC)
Method: as §1, §2, §3

αV25′A α-βWT GlyR = biological target: T4, αV25′A α-βWT GlyR (Homo sapiens, UniProt P23415+P48167, V305A)
T4 construct: The α R218-Q219 and β R242-Q243 are also the joining sites for chimeras constructed between the ECD and TMD; expressed in transfected cells; host or cells: HEK293 (ATCC)
Method: as §1, §2, §3

αV25′A αB-βWT GlyR = biological target: T5, αV25′A αB-βWT GlyR (Homo sapiens, UniProt P23415+P48167, A80Q/V305A)
T5 construct: expressed in transfected cells; host or cells: HEK293 (ATCC)
Method: as §1, §2, §3

αV25′A βWT GlyR = biological target: T6, αV25′A βWT GlyR (Homo sapiens, UniProt P23415+P48167, V305A)
T6 construct: expressed in transfected cells; host or cells: HEK293 (ATCC)
Method: as §1, §2, §3

αWT α-βV25′A GlyR = biological target: T7, αWT α-βV25′A GlyR (Homo sapiens, UniProt P23415+P48167, A277S/G282P/I253M/I257A/I264V/I268L/L252M/M248V/M255V/M274P/P278A/Q254G/S259T/V323A/Y250F)
T7 construct: The α R218-Q219 and β R242-Q243 are also the joining sites for chimeras constructed between the ECD and TMD; expressed in transfected cells; host or cells: HEK293 (ATCC)
Method: as §1, §2, §3

αWT α-βWT GlyR = biological target: T8, αWT α-βWT GlyR (Homo sapiens, UniProt P23415+P48167, A277S/A316I/A325S/DEL290-297/G282P/I253M/I257A/I264V/I268L/I311L/I313V/INS301ECTTLAAE/L252M/L327V/M248V/M255V/M274P/M315L/P278A/Q254G/R299L/S259T/S324A/T286F/T287S/V317A/V322G/Y250F)
T8 construct: The α R218-Q219 and β R242-Q243 are also the joining sites for chimeras constructed between the ECD and TMD; expressed in transfected cells; host or cells: HEK293 (ATCC)
Method: as §1, §2, §3

αWT αB-βV25′A GlyR = biological target: T9, αWT αB-βV25′A GlyR (Homo sapiens, UniProt P23415+P48167, A165S/A240V/A277S/A80Q/E245R/G282P/H243T/I181K/I238V/I253M/I257A/I264V/I268L/K171T/L252M/M168L/M248V/M255V/M274P/N172L/P278A/Q254G/R241I/S259T/T179R/V177T/V323A/Y250F)
T9 construct: expressed in transfected cells; host or cells: HEK293 (ATCC)
Method: as §1, §2, §3

αWT αB-βWT GlyR = biological target: T10, αWT αB-βWT GlyR (Homo sapiens, UniProt P23415+P48167, A165S/A240V/A277S/A316I/A325S/A80Q/DEL290-297/E245R/G282P/H243T/I181K/I238V/I253M/I257A/I264V/I268L/I311L/I313V/INS301ECTTLAAE/K171T/L252M/L327V/M168L/M248V/M255V/M274P/M315L/N172L/P278A/Q254G/R241I/R299L/S259T/S324A/T179R/T286F/T287S/V177T/V317A/V322G/Y250F)
T10 construct: expressed in transfected cells; host or cells: HEK293 (ATCC)
Method: as §1, §2, §3

αWT αT-βV25′A GlyR = biological target: T11, αWT αT-βV25′A GlyR (Homo sapiens, UniProt P23415+P48167, I259R/K198I/L185M/L189N/Q95A/R196T/R263E/S182A/T188K/T194V/T261H/V256I/V258A/V323A)
T11 construct: expressed in transfected cells; host or cells: HEK293 (ATCC)
Method: as §1, §2, §3

αWT βK24′A GlyR = biological target: T12, αWT βK24′A GlyR (Homo sapiens, UniProt P23415+P48167, K322A)
T12 construct: expressed in transfected cells; host or cells: HEK293 (ATCC)
Method: as §1, §2, §3

αWT βV25′A GlyR = biological target: T13, αWT βV25′A GlyR (Homo sapiens, UniProt P23415+P48167, V323A)
T13 construct: expressed in transfected cells; host or cells: HEK293 (ATCC)
Method: as §1, §2, §3

αWT βWT GlyR = biological target: T14, αWT βWT GlyR (Homo sapiens, UniProt P23415+P48167)
T14 construct: expressed in transfected cells; host or cells: HEK293 (ATCC)
Method: as §1, §2, §3

αWT βY27′A GlyR = biological target: T15, αWT βY27′A GlyR (Homo sapiens, UniProt P23415+P48167, Y325A)
T15 construct: expressed in transfected cells; host or cells: HEK293 (ATCC)
Method: as §1, §2, §3

[1] = αK24′A α-βWT, HEK293, with glycine at EC50 of α1 homomer
[2] = αR19′A βA19′R, HEK293, with glycine at EC50 of α1 homomer
[3] = αR19′A βWT, HEK293, with glycine at EC50 of α1 homomer
[4] = αV25′A α-βWT, HEK293, with glycine at EC50 of α1 homomer
[5] = αV25′A αB-βWT, HEK293, with glycine at EC50 of α1 homomer
[6] = αV25′A βWT, HEK293, with glycine at EC50 of α1 homomer
[7] = αWT α-βV25′A, HEK293, with glycine at EC50 of α1 homomer
[8] = αWT α-βWT, HEK293, with glycine at EC50 of α1 homomer
[9] = αWT αB-βV25′A, HEK293, with glycine at EC50 of α1 homomer
[10] = αWT αB-βWT, HEK293, with glycine at EC50 of α1 homomer
[11] = αWT αT-βV25′A, HEK293, with glycine at EC50 of α1 homomer
[12] = αWT βK24′A, HEK293, with glycine at EC50 of α1 homomer
[13] = αWT βV25′A, HEK293, with glycine at EC50 of α1 homomer
[14] = αWT βWT, HEK293, with glycine at EC50 of α1 homomer
[15] = αWT βY27′A, HEK293, with glycine at EC50 of α1 homomer

T5 sequence (P23415 29-449 isoform P23415-2 V305A): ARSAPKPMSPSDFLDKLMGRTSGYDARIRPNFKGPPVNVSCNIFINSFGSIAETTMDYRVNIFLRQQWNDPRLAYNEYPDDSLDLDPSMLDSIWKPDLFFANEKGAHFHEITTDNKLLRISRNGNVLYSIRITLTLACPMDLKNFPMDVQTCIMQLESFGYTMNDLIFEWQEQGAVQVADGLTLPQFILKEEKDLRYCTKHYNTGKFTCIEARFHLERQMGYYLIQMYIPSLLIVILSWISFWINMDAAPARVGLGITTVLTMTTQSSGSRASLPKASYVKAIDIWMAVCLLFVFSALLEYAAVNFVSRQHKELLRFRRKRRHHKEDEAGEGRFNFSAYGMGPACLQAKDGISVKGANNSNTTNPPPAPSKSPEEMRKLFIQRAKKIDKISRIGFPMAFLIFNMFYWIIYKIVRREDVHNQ
T5 sequence (P23415+P48167 fused with the stated changes): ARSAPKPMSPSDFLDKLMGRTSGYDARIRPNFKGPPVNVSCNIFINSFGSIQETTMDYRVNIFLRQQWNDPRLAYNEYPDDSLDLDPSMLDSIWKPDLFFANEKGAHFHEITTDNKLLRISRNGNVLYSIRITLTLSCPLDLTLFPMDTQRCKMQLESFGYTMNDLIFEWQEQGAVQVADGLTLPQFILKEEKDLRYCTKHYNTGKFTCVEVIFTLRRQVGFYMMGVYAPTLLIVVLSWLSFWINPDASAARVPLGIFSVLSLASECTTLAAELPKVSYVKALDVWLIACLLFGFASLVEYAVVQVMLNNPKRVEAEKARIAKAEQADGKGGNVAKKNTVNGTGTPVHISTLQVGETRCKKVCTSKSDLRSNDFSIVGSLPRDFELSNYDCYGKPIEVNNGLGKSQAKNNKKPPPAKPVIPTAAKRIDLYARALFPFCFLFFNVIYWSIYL
T6 sequence (P23415 29-449 isoform P23415-2 V305A limits assumed): as the sequence (P23415 29-449 isoform P23415-2 V305A) above
T6 sequence (P48167 23-497): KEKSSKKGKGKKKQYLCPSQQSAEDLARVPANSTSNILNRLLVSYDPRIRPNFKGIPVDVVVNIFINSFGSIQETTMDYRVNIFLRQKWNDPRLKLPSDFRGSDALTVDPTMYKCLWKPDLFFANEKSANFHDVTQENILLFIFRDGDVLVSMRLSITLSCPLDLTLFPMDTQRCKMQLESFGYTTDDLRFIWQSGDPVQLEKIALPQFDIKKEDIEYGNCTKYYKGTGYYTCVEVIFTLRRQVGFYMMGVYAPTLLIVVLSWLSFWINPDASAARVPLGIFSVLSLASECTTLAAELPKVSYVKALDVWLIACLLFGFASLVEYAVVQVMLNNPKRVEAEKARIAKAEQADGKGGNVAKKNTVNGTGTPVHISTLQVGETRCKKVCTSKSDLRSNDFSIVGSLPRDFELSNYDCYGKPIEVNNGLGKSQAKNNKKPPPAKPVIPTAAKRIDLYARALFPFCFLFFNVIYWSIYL
T4 sequence (P23415 29-449 isoform P23415-2 V305A): as the sequence (P23415 29-449 isoform P23415-2 V305A) above
T4 sequence (P23415+P48167 fused with the stated changes): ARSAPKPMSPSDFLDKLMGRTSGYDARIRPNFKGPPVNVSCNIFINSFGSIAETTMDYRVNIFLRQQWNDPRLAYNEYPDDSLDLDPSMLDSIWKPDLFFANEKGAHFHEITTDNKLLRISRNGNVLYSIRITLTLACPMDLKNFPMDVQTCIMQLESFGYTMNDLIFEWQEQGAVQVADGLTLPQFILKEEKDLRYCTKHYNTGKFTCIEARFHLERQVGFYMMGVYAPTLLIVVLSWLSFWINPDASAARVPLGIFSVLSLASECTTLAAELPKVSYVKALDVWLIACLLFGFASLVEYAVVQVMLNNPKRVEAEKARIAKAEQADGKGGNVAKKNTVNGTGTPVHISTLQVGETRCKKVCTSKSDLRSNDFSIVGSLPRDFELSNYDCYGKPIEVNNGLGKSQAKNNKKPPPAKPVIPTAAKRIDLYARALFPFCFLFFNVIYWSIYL
T3 sequence (P23415 29-449 isoform P23415-2 R299A limits assumed): as the sequence (P23415 29-449 isoform P23415-2 V305A) above, with R271A, A277V counted along it
T3 sequence (P48167 23-497): as the sequence (P48167 23-497) above
T2 sequence (P23415 29-449 isoform P23415-2 R299A limits assumed): as the sequence (P23415 29-449 isoform P23415-2 V305A) above, with R271A, A277V counted along it
T2 sequence (P48167 23-497 A317R): as the sequence (P48167 23-497) above, with A295R counted along it

For NCC(=O)O [glycine], the Imax (αK24′A α-βWT GlyR) was 7.2±0.9 nA, the nH (αK24′A α-βWT GlyR) was 1.0±0.1 and the Imax (αR19′A βA19′R GlyR) was 5.5±0.9 nA. The nH (αR19′A βA19′R GlyR) was 2.1±0.2, the Imax (αR19′A βWT GlyR) was 3.9±1.3 nA and the nH (αR19′A βWT GlyR) was 2.5±0.3. The Imax (αV25′A α-βWT GlyR) was 8.2±1.4 nA, the nH (αV25′A α-βWT GlyR) was 0.92±0.04 and the Imax (αV25′A αB-βWT GlyR) was 5.5±0.9 nA. It also gave a nH (αV25′A αB-βWT GlyR) of 1.1±0.0, an Imax (αV25′A βWT GlyR) of 7.4±2.8 nA and a nH (αV25′A βWT GlyR) of 1.4±0.2. The Imax (αWT α-βV25′A GlyR) was 7.6±1.7 nA, the nH (αWT α-βV25′A GlyR) was 1.3±0.1 and the Imax (αWT α-βWT GlyR) was 4.3±0.7 nA. The nH (αWT α-βWT GlyR) was 1.3±0.3, the Imax (αWT αB-βV25′A GlyR) was 9.8±4.9 nA and the nH (αWT αB-βV25′A GlyR) was 2.2±0.3. The Imax (αWT αB-βWT GlyR) was 8.6±1.6 nA, the nH (αWT αB-βWT GlyR) was 1.8±0.4 and the Imax (αWT αT-βV25′A GlyR) was 14±3.0 nA. The nH (αWT αT-βV25′A GlyR) was 2.3±0.1, the Imax (αWT βK24′A GlyR) was 5.4±1.0 nA and the nH (αWT βK24′A GlyR) was 1.5±0.3. For the same molecule, the Imax (αWT βV25′A GlyR) was 7.7±0.8 nA, the nH (αWT βV25′A GlyR) was 2.0±0.6 and the Imax (αWT βWT GlyR) was 4.3±1.2 nA. It also gave a nH (αWT βWT GlyR) of 2.0±0.4, an Imax (αWT βY27′A GlyR) of 8.0±1.3 nA and a nH (αWT βY27′A GlyR) of 2.4±0.1.
For picrotoxin [PTX], the “10uM PTX inhibition (%)” value (αK24′A α-βWT GlyR; [1]) was 4.8±0.7%, the “100uM PTX inhibition (%)” value (αK24′A α-βWT GlyR; [1]) was 26±5% and the “10uM PTX inhibition (%)” value (αR19′A βA19′R GlyR; [2]) was 4.2±1.7%. The “100uM PTX inhibition (%)” value (αR19′A βA19′R GlyR; [2]) was 22±8%, the “10uM PTX inhibition (%)” value (αR19′A βWT GlyR; [3]) was 2.8±2.1% and the “100uM PTX inhibition (%)” value (αR19′A βWT GlyR; [3]) was 20±9%. For the same molecule, the “10uM PTX inhibition (%)” value (αV25′A α-βWT GlyR; [4]) was 2.9±0.8%, the “100uM PTX inhibition (%)” value (αV25′A α-βWT GlyR; [4]) was 21±5% and the “10uM PTX inhibition (%)” value (αV25′A αB-βWT GlyR; [5]) was 4.8±0.6%. The “100uM PTX inhibition (%)” value (αV25′A αB-βWT GlyR; [5]) was 27±2%, the “10uM PTX inhibition (%)” value (αV25′A βWT GlyR; [6]) was 4.7±0.7% and the “100uM PTX inhibition (%)” value (αV25′A βWT GlyR; [6]) was 38±3%. For the same molecule, the “10uM PTX inhibition (%)” value (αWT α-βV25′A GlyR; [7]) was 3.0±1.3%, the “100uM PTX inhibition (%)” value (αWT α-βV25′A GlyR; [7]) was 34±4% and the “10uM PTX inhibition (%)” value (αWT α-βWT GlyR; [8]) was 3.8±2.2%. For the same molecule, the “100uM PTX inhibition (%)” value (αWT α-βWT GlyR; [8]) was 25±2%, the “10uM PTX inhibition (%)” value (αWT αB-βV25′A GlyR; [9]) was 8.9±2.4% and the “100uM PTX inhibition (%)” value (αWT αB-βV25′A GlyR; [9]) was 43±3%. The “10uM PTX inhibition (%)” value (αWT αB-βWT GlyR; [10]) was 4.8±0.9%, the “100uM PTX inhibition (%)” value (αWT αB-βWT GlyR; [10]) was 33±4% and the “10uM PTX inhibition (%)” value (αWT αT-βV25′A GlyR; [11]) was 8.5±1.8%. The “100uM PTX inhibition (%)” value (αWT αT-βV25′A GlyR; [11]) was 36±3%, the “10uM PTX inhibition (%)” value (αWT βK24′A GlyR; [12]) was 6.0±1.2% and the “100uM PTX inhibition (%)” value (αWT βK24′A GlyR; [12]) was 35±3%. For the same molecule, the “10uM PTX inhibition (%)” value (αWT βV25′A GlyR; [13]) was 5.7±2.2%, the “100uM PTX inhibition (%)” value (αWT βV25′A GlyR; [13]) was 36±7% and the “10uM PTX inhibition (%)” value (αWT βWT GlyR; [14]) was 8.5±1.8%. For the same molecule, the “100uM PTX inhibition (%)” value (αWT βWT GlyR; [14]) was 33±9%, the “10uM PTX inhibition (%)” value (αWT βY27′A GlyR; [15]) was 6.3±0.3% and the “100uM PTX inhibition (%)” value (αWT βY27′A GlyR; [15]) was 42±2%.
